Values after ≈ are worked out from the molar mass of the structure shown.
Assays:
Type in all cases: cell-based
CMV = test: Plaque Reduction Test for Cytomegalovirus (AD-169 strain) in MRC-5 cells; conditions: Human betaherpesvirus 5, AD169, MRC5
Protocol: MRC-5 cells were grown to confluence in 24 well multi-dishes (well diameter=1.5 cm). The drained cell monolayers were each infected with approximately 50 infectious particles of cytomegalovirus (CMV; AD-169 strain) in 100 μl of phosphate-buffered saline. The virus was adsorbed for 1 hour at room temperature. After adsorption, residual inoculum was removed from each well and replaced with 1 ml of Eagle's MEM containing 10% heat inactivated foetal calf serum and 0.9% agarose (A37). Once the agarose had set, dilutions of the test compound, which had been prepared in Eagle's MEM (containing 10% heat-inactivated calf serum), were added, each well receiving 1 ml of liquid overlay. The test compound was diluted to give the following series of concentrations: 200, 60, 20, 6 . . . 0.06 μg/ml; final concentrations in the assay range, therefore, between 100 μg/ml and 0.03 μg/ml. The infected cultures were incubated at 37° C. in a humidified atmosphere containing 5% CO2 until plaques were clearly visible (about 12 days). The cultures are fixed in formol saline, the agarose overlays were carefully washed off, and then the cell monolayers were stained with carbol fuchsin. A stereo microscope was used to count plaques. The IC50 (concentration of drug which inhibits the number of plaques formed by 50% relative to the number of plaques observed in virus control monolayers) of the test compound was calculated. In addition, the monolayers were examined for evidence of drug-induced cytotoxicity; the minimum concentration at which cytotoxicity occurs was recorded.

HIV = HIV Suppression test, viral antigen (core protein p24, sandwich ELISA) in peripheral human lymphocytes; conditions: Human immunodeficiency virus 1, Lymphocyte, 96 h; Concn. 0.1 μM; read-out: % Inhibition on Day 4 after infection, Viral Antigen
Protocol: Peripheral human lymphocytes were prepared, cultivated, and harvested as above. Following the determination of the lymphocyte surface markers, unstimulated and mitogen stimulated cells were combined in a ratio of 1:2.
Under safety conditions these cells are infected with a standard preparation of HIV. The cells are sedimented by centrifugation. The supernatant was discarded and cells were resuspended in the HIV inoculum.
This inoculum is a liquid suspension of HIV-1 strain virus, pretested and adjusted to a titer that results in a synthesis of viral core protein p24 of >100 ng/ml at day four following infection of human lymphocytes according to the protocol.
3×10^8 lymphocytes were resuspended in 1 ml HIV inoculum and incubated at 37° C. for 60 minutes. Subsequently, the cells were washed two times with 50 ml of culture medium and resuspended in culture medium containing 10 units/ml of human recombinant interleukin-2 to yield a cell concentration of 2×10^6 cells/ml. 100 μof this cell suspension was added to each well of the microtiter plates containing the diluted solutions of the compounds. The microtiter plates were cultivated in an incubator with a humidified atmosphere and 5% CO2 at 37° C.
Accordingly, a fraction of lymphocytes was mock-infected with the same virus preparation that was heat inactivated (30 minutes at 56° C.) prior to infection.
On each of the days 2,3 and 4 post infection one of the microtiter plates which had been established in triplicate was prepared for determination of viral replication. Viral RNA is determined within the cells whereas the viral core protein p24 was detected in the supernatant of the lymphocyte culture.
Accordingly, 150 μl of supernatant were removed from each well and transferred to the well of a microtiter plate containing 50 μl/well of SDS (sodium dodecylsulfate, 0.08%). These plates were stored frozen. 50 μl of stop solution (1% SDS, 20 mM sodium acetate, pH 5.0, and 200 μg/ml heparin) were added to the cells remaining in each well. The plates were stored frozen.
The concentration of p24 synthesized by the HIV infected cells was determined by means of a sandwich ELISA, while the concentration of viral RNA was quantitated by nucleic acid hybridisation, using a ^32 P-labelled DNA probe for the gag/pol region of the viral genome. Absolute levels of viral antigen and RNA in drug treated samples were compared with untreated, virus-infected controls and the percentage inhibition calculated.

[1] = Cell cytotoxicity test (MTT) in peripheral human lymphocytes
Protocol: Peripheral human lymphocytes were isolated by density gradient centrifugation from blood donations of healthy volunteers. The `buffy coat`-fractions of these donations were provided by blood donation centres.
The buffy coat was diluted 1:1 with sterile phosphate buffered saline (PBS; 50 mM sodium phosphate, pH 7.4, 0,9% sodium chloride) and subsequently layered over Ficoll. Following centrifugation (30 minutes at 400×g) the supernatant was discarded and the interphase containing the lymphocytes was recovered. The lymphocytes were washed two times in PBS and were resuspended finally in cell culture medium.
A viability staining was performed by means of the trypan blue dye-exclusion method. The concentration of cells in the suspension and the percentage of viable cells were calculated. […]
The lymphocytes were cultivated in an incubator with a humidified atmosphere and 5% CO2 for 48 to 64 hours at 37° C. Following this incubation period, cells were harvested by centrifugation, resuspended in cell culture medium and counted. […]
Survival and proliferation of the lymphocytes grown in the presence of the compound were measured by a quantitative colorimetric assay. […] The amount of product which is a function of cell number and metabolic cellular activity was quantified photometrically. By this assay, potential cytotoxic and cytostatic effects of compounds towards lymphocytes were detected precisely. […]

**Q.** Which IC50 (CMV) does the source give for `Nc1nc2c(ncn2OCC/C=C/P(=O)(O)O)c(=O)[nH]1` [Example 1, (E)-9-(4-phosphonobut-3-enyloxy)guanine] here?
**A.** 0.16 µg/mL (≈ 0.531 µM)

**Q.** What about the inhibition at 0.1 µM (HIV) of the same compound?
**A.** 93%

**Q.** What about the CC50 at 96 h [1] of the same compound?
**A.** 1000 nM

**Q.** And the cytotoxicity at 0.1 µM ([1]; at 0.1 μM, read-out: Slight toxicity (inhibition))?
**A.** 18%
